Assay results taken from US20240207427A1, “SELECTIVE DRUG RELEASE FROM INTERNALIZED CONJUGATES OF BIOLOGICALLY ACTIVE COMPOUNDS” (priority 2021, published 2024).
pIC50: −log10 of the molar value. Read-outs that look alike come from different tables or passages of the source.

Assays:
Type in all cases: cell-based
[1] = system: non-small-cell lung cancer cells (Calu1); assay: In vitro potency (CellTiter-Glo, 96 h), Calu1; details: Homo sapiens, Calu-1, 96 h, Table 28; CPT free drugs; non-small-cell lung cancer cells Calu1; 96 h, CellTiter-Glo; read-out: Calu1 IC50
Description: (§1) In vitro potency was assessed on multiple cancer cell lines. All cell lines were authenticated by STR profiling at IDEXX Bioresearch and cultured for no more than 2 months after resuscitation. Cells cultured in log-phase growth were seeded for 24 hours in 96-well plates containing […] RPMI 1640 supplemented with 20% FBS. Serial dilutions of antibody-drug conjugates in cell culture media were prepared at 4× working concentrations, and 50 μL of each dilution was added to the 96-well plates. Following addition of test articles, cells were incubated with test articles for 4 days at 37 0° C. After 96 hours, growth inhibition was assessed by CellTiterGlo® (Promega, Madison, WI) and luminescence was measured on a plate reader.
(§2) In Table 7, IC50 values for ADCs are given in ng/mL. Cell viability was determined by CellTiter-Glo staining after 96 h exposure to ADC. ND=Not Determined. Ag2 is an antibody targeting a ubiquitous and readily internalizable antigen. The cancer cell lines tested are renal carcinoma cells (786-0), melanoma cells (A2058), pancreatic cancer cells (BxPC3), non-small-cell lung cancer cells (Calu1), anaplastic large cell lymphoma cells (DEL, DELBVR, Karpas299), Hodgkin's lymphoma cells (L540cy), (Ls174T), breast cancer cells (MDA-MB-231), acute myeloid leukemia cells (MOLM-13), and B-lymphocyte cancer cells (SU-DHL4).
as §1, with “FBS.” for “FBS. Serial dilutions of antibody-drug conjugates in cell culture media were prepared at 4× working concentrations, and 50 μL of each dilution was added to the 96-well plates.”
(§3) Cell viability was determined by CellTiter-Glo staining after 96 h exposure to the compound. ND=Not Determined. The cancer cell lines tested are renal carcinoma cells (786-0), melanoma cells (A2058), pancreatic cancer cells (BxPC3), non-small-cell lung cancer cells (Calu1), anaplastic large cell lymphoma cells (DEL, DELBVR, Karpas299), Hodgkin's lymphoma cells (L540cy), (Ls 174T), breast cancer cells (MDA-MB-231), acute myeloid leukemia cells (MOLM-13), B-lymphocyte cancer cells (SU-DHL4), multiple myeloma cells (MM.1R), (U266), and melanoma cells (SK-MEL-5).
as §1, with “37°” for “37 0°”
(§4) In the following Tables IC50 values for ADCs and CPT free drugs are given in ng/mL and nmol/L concentrations. Cell viability was determined by CellTiter-Glo staining after 96 h exposure to ADC or CPT free drug.
(§5) Cell viability was determined by CellTiter-Glo staining after 96 h exposure to ADC. ND=Not Determined.

[2] = system: anaplastic large cell lymphoma cells (Karpas299); assay: In vitro potency (CellTiter-Glo, 96 h), Karpas299; details: Homo sapiens, KARPAS-299, 96 h
Description: as §1, §2
as §1, with “FBS.” for “FBS. Serial dilutions of antibody-drug conjugates in cell culture media were prepared at 4× working concentrations, and 50 μL of each dilution was added to the 96-well plates.”
as §3
as §1, with “37°” for “37 0°”
as §4, §5

[3] = system: pancreatic cancer cells (BxPC3); assay: In vitro potency (CellTiter-Glo, 96 h), BxPC3; details: Homo sapiens, BXPC-3, 96 h
Description: as §1, §2
as §1, with “FBS.” for “FBS. Serial dilutions of antibody-drug conjugates in cell culture media were prepared at 4× working concentrations, and 50 μL of each dilution was added to the 96-well plates.”
as §3
as §1, with “37°” for “37 0°”
as §4, §5

[4] = system: B-lymphocyte cancer cells (SU-DHL4); assay: In vitro potency (CellTiter-Glo, 96 h), SU-DHL-4; details: Homo sapiens, SU-DHL-4, 96 h
Description: as §1, §2
as §1, with “FBS.” for “FBS. Serial dilutions of antibody-drug conjugates in cell culture media were prepared at 4× working concentrations, and 50 μL of each dilution was added to the 96-well plates.”
as §3
as §1, with “37°” for “37 0°”
as §4, §5

[5] = system: anaplastic large cell lymphoma cells (DEL); assay: In vitro potency (CellTiter-Glo, 96 h), DEL
Description: as §1, §2
as §1, with “FBS.” for “FBS. Serial dilutions of antibody-drug conjugates in cell culture media were prepared at 4× working concentrations, and 50 μL of each dilution was added to the 96-well plates.”
as §3
as §1, with “37°” for “37 0°”
as §4, §5

[6] = system: Ls174T cells; assay: In vitro potency (CellTiter-Glo, 96 h), Ls174T; details: Homo sapiens, LS174T, 96 h
Description: as §1, §2
as §1, with “FBS.” for “FBS. Serial dilutions of antibody-drug conjugates in cell culture media were prepared at 4× working concentrations, and 50 μL of each dilution was added to the 96-well plates.”
as §3
as §1, with “37°” for “37 0°”
as §4, §5

[7] = system: breast cancer cells (MDA-MB-231); assay: In vitro potency (CellTiter-Glo, 96 h), MDA-MB-231; details: Homo sapiens, MDA-MB-231, 96 h
Description: as §1, §2
as §1, with “FBS.” for “FBS. Serial dilutions of antibody-drug conjugates in cell culture media were prepared at 4× working concentrations, and 50 μL of each dilution was added to the 96-well plates.”
as §3
as §1, with “37°” for “37 0°”
as §4, §5

[8] = system: Hodgkin's lymphoma cells (L540cy); assay: In vitro potency (CellTiter-Glo, 96 h), L540cy
Description: as §1, §2
as §1, with “FBS.” for “FBS. Serial dilutions of antibody-drug conjugates in cell culture media were prepared at 4× working concentrations, and 50 μL of each dilution was added to the 96-well plates.”
as §3
as §1, with “37°” for “37 0°”
as §4, §5

[9] = system: acute myeloid leukemia cells (MOLM-13); assay: In vitro potency (CellTiter-Glo, 96 h), MOLM-13; details: Homo sapiens, MOLM-13, 96 h
Description: as §1, §2
as §1, with “FBS.” for “FBS. Serial dilutions of antibody-drug conjugates in cell culture media were prepared at 4× working concentrations, and 50 μL of each dilution was added to the 96-well plates.”
as §3
as §1, with “37°” for “37 0°”
as §4, §5

[10] = system: melanoma cells (A2058); assay: In vitro potency (CellTiter-Glo, 96 h), A2058; details: Homo sapiens, A2058, 96 h, read-out: A2058 IC50
Description: as §1, §2
as §1, with “FBS.” for “FBS. Serial dilutions of antibody-drug conjugates in cell culture media were prepared at 4× working concentrations, and 50 μL of each dilution was added to the 96-well plates.”
as §3
as §1, with “37°” for “37 0°”
as §4, §5

[11] = system: anaplastic large cell lymphoma cells (DELBVR); assay: In vitro potency (CellTiter-Glo, 96 h), DELBVR
Description: as §1, §2
as §1, with “FBS.” for “FBS. Serial dilutions of antibody-drug conjugates in cell culture media were prepared at 4× working concentrations, and 50 μL of each dilution was added to the 96-well plates.”
as §3
as §1, with “37°” for “37 0°”
as §4, §5

[12] = system: renal carcinoma cells (786-O); assay: In vitro potency (CellTiter-Glo, 96 h), 786-O; details: Homo sapiens, 786-0, 96 h
Description: as §1, §2
as §1, with “FBS.” for “FBS. Serial dilutions of antibody-drug conjugates in cell culture media were prepared at 4× working concentrations, and 50 μL of each dilution was added to the 96-well plates.”
as §3
as §1, with “37°” for “37 0°”
as §4, §5

[13] = camptothecin free drug, 96 h, read-out: Karpas299 IC50
[14] = camptothecin free drug, 96 h, read-out: BxPC3 IC50
[15] = camptothecin free drug, 96 h, read-out: SU-DHL-4 IC50
[16] = camptothecin free drug, read-out: DEL IC50
[17] = camptothecin free drug, read-out: Ls174T IC50
[18] = camptothecin free drug, 96 h, read-out: MDAMB231 IC50
[19] = camptothecin free drug, read-out: L540cy IC50
[20] = camptothecin free drug, 96 h, read-out: MOLM-13 IC50
[21] = camptothecin free drug, read-out: DELBVR IC50
[22] = camptothecin free drug, 96 h, read-out: 786-O IC50

SMILES: CC[C@@]1(O)C(=O)OCc2c1cc1n(c2=O)Cc2c-1nc1cc(F)c(SC)cc1c2CN [Compound 2at]
- pIC50 [1]: 7.43

SMILES: CC[C@@]1(O)C(=O)OCc2c1cc1n(c2=O)Cc2c-1nc1cc3c(cc1c2CNCCCN(C)C(=O)OC(C)(C)C)OCO3 [Compound 7a]
- pIC50 [2, 13]: 6.87
- pIC50 [3, 14]: 7.09
- pIC50 [4, 15]: 7.19
- pIC50 [5, 16]: 7.60
- pIC50 [6, 17]: 7.13
- pIC50 [7, 18]: 6.41
- pIC50 [8, 19]: 7.28
- pIC50 [9, 20]: 6.65
- pIC50 ([10]; camptothecin free drug, 96 h): 7.64
- pIC50 [11, 21]: 7.31
- pIC50 [12, 22]: 6.95

SMILES: CC[C@@]1(O)C(=O)OCc2c1cc1n(c2=O)Cc2c-1nc1cc3c(cc1c2CN1CCN(CCNC(=O)OC(C)(C)C)CC1)OCO3 [Compound 7af]
- pIC50 [2, 13]: 6.90
- pIC50 [3, 14]: 6.75
- pIC50 [4, 15]: 7.32
- pIC50 [5, 16]: 7.82
- pIC50 [6, 17]: 7.10
- pIC50 [7, 18]: 6.00
- pIC50 [8, 19]: 7.21
- pIC50 [9, 20]: 6.96
- pIC50 ([10]; camptothecin free drug, 96 h): 7.42
- pIC50 [11, 21]: 7.62
- pIC50 [12, 22]: 6.75

SMILES: CC[C@@]1(O)C(=O)OCc2c1cc1n(c2=O)Cc2c-1nc1cc3c(cc1c2CNCCN1CCN(C(=O)OC(C)(C)C)CC1)OCO3 [Compound 7f]
- pIC50 [2, 13]: 6.79
- pIC50 [3, 14]: 6.81
- pIC50 [4, 15]: 7.08
- pIC50 [5, 16]: 7.28
- pIC50 [6, 17]: 7.16
- pIC50 [7, 18]: 6.11
- pIC50 [8, 19]: 7.18
- pIC50 [9, 20]: < 6.00
- pIC50 ([10]; camptothecin free drug, 96 h): 7.39
- pIC50 [11, 21]: 7.28
- pIC50 [12, 22]: 6.89

SMILES: CC[C@@]1(O)C(=O)OCc2c1cc1n(c2=O)Cc2c-1nc1cc3c(cc1c2CNCC(O)CN1CCOCC1)OCO3 (stereo partly shown) [Compound 7i]
- pIC50 ([2]; read-out: Karpas299 IC50, Table 29, CPT free drugs, anaplastic large cell lymphoma cells Karpas299, 96 h, CellTiter-Glo): 7.08
- pIC50 ([2]; read-out: Karpas299 IC50, camptothecin free drug, 96 h): 6.81
- pIC50 ([3]; read-out: BxPC3 IC50, Table 29, CPT free drugs, pancreatic cancer cells BxPC3, 96 h, CellTiter-Glo): 7.24
- pIC50 ([3]; read-out: BxPC3 IC50, camptothecin free drug, 96 h): 6.97
- pIC50 ([4]; read-out: SU-DHL-4 IC50, Table 29, CPT free drugs, B-lymphocyte cancer cells SU-DHL4, 96 h, CellTiter-Glo): 7.49
- pIC50 ([4]; read-out: SU-DHL-4 IC50, camptothecin free drug, 96 h): 7.14
- pIC50 ([5]; read-out: DEL IC50, Table 29, CPT free drugs, anaplastic large cell lymphoma cells DEL, CellTiter-Glo): 8.05
- pIC50 ([5]; read-out: DEL IC50, camptothecin free drug, 96 h): 7.42
- pIC50 ([6]; read-out: Ls174T IC50, Table 29, CPT free drugs, Ls174T cells, CellTiter-Glo): 6.96
- pIC50 ([6]; read-out: Ls174T IC50, camptothecin free drug, 96 h): 7.14
- pIC50 ([7]; read-out: MDAMB231 IC50, Table 29, CPT free drugs, breast cancer cells MDA-MB-231, 96 h, CellTiter-Glo): 6.74
- pIC50 ([7]; read-out: MDAMB231 IC50, camptothecin free drug, 96 h): 6.00
- pIC50 ([8]; read-out: L540cy IC50, Table 29, CPT free drugs, Hodgkin's lymphoma cells L540cy, CellTiter-Glo): 7.32
- pIC50 ([8]; read-out: L540cy IC50, camptothecin free drug, 96 h): 7.20
- pIC50 ([9]; read-out: MOLM-13 IC50, Table 29, CPT free drugs, acute myeloid leukemia cells MOLM-13, 96 h, CellTiter-Glo): 6.74
- pIC50 ([9]; read-out: MOLM-13 IC50, camptothecin free drug, 96 h): 6.51
- pIC50 [10]: 7.48
- pIC50 ([11]; read-out: DELBVR IC50, Table 29, CPT free drugs, anaplastic large cell lymphoma cells DELBVR, CellTiter-Glo): 7.77
- pIC50 ([11]; read-out: DELBVR IC50, camptothecin free drug, 96 h): 7.29
- pIC50 ([12]; read-out: 786-O IC50, Table 29, CPT free drugs, renal carcinoma cells 786-O, 96 h, CellTiter-Glo): 6.93
- pIC50 ([12]; read-out: 786-O IC50, camptothecin free drug, 96 h): 6.89
